Paper PMC8138767, “Intrinsically disordered substrates dictate SPOP subnuclear localization and ubiquitination activity” (The Journal of Biological Chemistry, 2021)

Columns and labels:
[1] = In vitro phase separation of Pdx1; assay type: physicochemical
[2] = target: T1, SPOP28–359 (Homo sapiens, UniProt O43791); experiment: Competition fluorescence anisotropy, displacement of f-Puc from oligomeric SPOP28–359; assay type: binding; details: competition FA; Fig. 5B and Table S4
T1 construct: A plasmid encoding His–SUMO–SPOP human residues 28 to 359; His-SUMO (N, cleaved yes); made in house; host or cells: E. coli Rosetta BL-21(DE3)
T1 sequence (O43791 28-359): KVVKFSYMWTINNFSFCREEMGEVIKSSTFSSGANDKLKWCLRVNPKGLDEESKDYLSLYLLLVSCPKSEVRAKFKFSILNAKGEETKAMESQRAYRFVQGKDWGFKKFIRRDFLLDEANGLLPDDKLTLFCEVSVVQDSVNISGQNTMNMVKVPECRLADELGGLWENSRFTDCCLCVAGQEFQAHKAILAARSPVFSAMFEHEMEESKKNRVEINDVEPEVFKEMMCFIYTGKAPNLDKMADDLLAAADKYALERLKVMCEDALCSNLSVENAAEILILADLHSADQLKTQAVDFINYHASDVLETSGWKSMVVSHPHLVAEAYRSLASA
Text: An Escherichia coli codon-optimized DNA sequence encoding amino acids 205 to 283 of the human Pdx1 sequence (Pdx1-C) in the multiple cloning site of pET49b(+) was purchased from GeneArt (Thermo Fisher). The pET49b(+) backbone encodes for N-terminal glutathione S-transferase and 6X His tags, followed by a 3C protease recognition motif. In all experiments described herein, a mutant containing an exogenous tryptophan at the N terminus of the human Pdx1-C sequence was used for the purposes of quantitation. Mutations in Pdx1-C were generated by Q5 site-directed mutagenesis (New England Biolabs) with primers designed on NEBbasechanger.com according to the manufacturer protocol. […]
All FA experiments were conducted in 50 mM sodium phosphate, pH 6.5, 50 mM sodium chloride, 5 mM DTT, 1% BSA, and 0.01% Triton X-100. In all experiments, the source of fluorescence signal was f-Puc purchased from GenScript, at a final concentration of 40 nM. […] The fluorescence polarization of each well was measured (from which FA was calculated) using either a TECAN Infinite M1000 Pro or BioTek Synergy 4 fluorometer. […] FA data points were fit to a complete competitive binding model ([23]) to determine dissociation constants using in-house Python scripts (see Quantification and statistical analysis). […]

[3] = system: SPOP-mediated ubiquitination in T-REx-293 cells; experiment: SPOP-mediated ubiquitination of Pdx1 variants (Ni-NTA pulldown, immunoblot); assay type: cell-based; details: SPOP–myc and GFP–Pdx1 coexpressed 24 h, then 20 μM MG132 or DMSO for 4 h, immunoblot (Fig. 6C)
Procedure: We next sought to determine whether SPOP-driven ubiquitination of Pdx1 could occur outside of previously implicated droplets. Given the SPOP relocalization phenotype that we observe in cells that express SPOP and Pdx1, we hypothesized that the ubiquitination activity was occurring in the diffuse nucleoplasm and that optimal activity requires both SB sites. To test this hypothesis, we performed in cell ubiquitination assays with GFP–Pdx1 variants. SPOP–myc and GFP–Pdx1 were coexpressed for 24 h in T-REx-293 cells, followed by a 4-h treatment with 20 μM MG132 or dimethyl sulfoxide. Proteins modified with His-ubiquitin were enriched by pulldown on nickel-nitrilotriacetic acid (Ni-NTA) resin.
A plasmid encoding full-length human Pdx1 (amino acids 1-283) in pcDNA3.1 with a C-terminal GFP tag was purchased from GenScript. Full-length mouse SPOP (identical to the human sequence) with a V5 epitope tag in pcDNA3 was generated previously ([21]). The coding sequence for full-length mouse SPOP was inserted into pcDNA4/TO/myc (Invitrogen) for the T-REx system. pcDNA3-myc-CUL3 (cat no. 19893) and pcDNA–HA2–ROC1 (Rbx1) (cat no. 19897) were obtained from Addgene. pcDNA3 containing His-ubiquitin was a gift from Wenyi Wei.
Ubiquitination and Western blots
(§1) T-REx-293 cells (Invitrogen) were seeded at a density of 0.8 × 10^6 per well in 6-well plates (tissue culture–treated plates (cat. no 3516, Corning)). After 24 h, cells were transfected with plasmids encoding Pdx1–GFP, SPOP–myc, His–ubiquitin, HA–Rbx1, and myc–CUL3 (as indicated) using the Qiagen Effectene transfection reagent. 24 h after transfection, the cells were treated with either dimethyl sulfoxide or 20 μM MG132 for 4 h before being harvested. Cells were lysed in buffer A (6 M guanidine HCl, 100 mM sodium phosphate, pH 8.0, and 10 mM imidazole). The lysates were sonicated, cleared, and incubated with Ni-NTA Agarose (Qiagen) for 3 h at RT, followed by 16 h at 4 °C. The beads were washed twice with buffer A and twice with a buffer composed of 1:3 buffer A:buffer T1 (buffer T1: 25 mM Tris HCl, pH 8.0, and 20 mM imidazole). The beads were finally transferred to buffer T1 and then boiled in the SDS-PAGE loading buffer containing 300 mM imidazole. Pdx1 stability assays were performed as described above, except that the cells were not treated with MG132. Cells expressing Pdx1–GFP or a variant were harvested 28 h after transfection, resuspended in 2x SDS-loading dye, and boiled for 5 min before SDS-PAGE analysis.
(§2) All proteins were resolved by SDS-PAGE. Separated proteins were analyzed by immunoblotting using either the ECL or the ECL Select Western blotting detection reagents (Amersham). The antibodies used were mouse anti-Pdx1 used at 1:500 for pulldown or 1:2000 for inputs (clone 26771, MAB2419, R&D Systems), mouse anti-myc (1:250, clone 9E10, Santa Cruz Biotechnology), and rabbit anti-GAPDH (1:8000, clone EPR1689, Abcam). horseradish peroxidase-conjugated secondary antibodies were sourced from Jackson ImmunoResearch Laboratories and used at 1:20,000 dilution (goat anti-rabbit IgG, 111-035-003 and goat anti-mouse, 115-035-003).

[4] = system: SPOP-dependent turnover in T-REx-293 cells; experiment: SPOP-dependent Pdx1 stability (Western blot); assay type: cell-based; details: no MG132, harvested 28 h after transfection, Western blot (Fig. S3D)
Procedure: In a similar experiment, the cells were not treated with a proteasome inhibitor to observe the SPOP-dependent stability of each Pdx1 variant.
as §1, §2

Substance: Pdx1: full-length human Pdx1 (amino acids 1-283) with a C-terminal GFP tag
- in vitro phase separation [1]: do not observe in vitro phase separation
- enhancement in binding affinity to oligomeric SPOP28–359 compared with SPOP–MATH [2]: ~10 fold
- ubiquitination of Pdx1 variant ([3]; listed as GFP–Pdx1–WT): is ubiquitinated in cells
- ubiquitination of Pdx1 variant ([3]; listed as Pdx1–WT): robust polyubiquitination
- SPOP-dependent Pdx1 stability ([4]; listed as Pdx1-GFP-WT): almost entirely degraded
- SPOP-dependent Pdx1 stability ([4]; listed as Pdx1–WT): readily degraded
